Assay results as given in US10266548B2, “Substituted benzylindazoles for use as Bub1 kinase inhibitors in the treatment of hyperproliferative diseases” (Bayer Intellectual Property GmbH, priority 2011, dated 2019).
Where two headings read alike, the source gives them in different places.

Key:
[1] = target: catalytic domain of human Bub1 (amino acids 704-1085) (Homo sapiens (Human), UniProt O43683); test: Bub1 kinase assay (TR-FRET); type: biochemical; conditions: 10 μM ATP, 1 μM peptide substrate; read-out: Biological Assay 1: Bub1 kinase assay median IC50
Outline: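 Phosphoserine product detected by TR-FRET (Eu-labeled anti-mouse IgG/anti-phosphoserine antibody to streptavidin-XL665) after 1 h at 22 °C. IC50 from 4-parameter logistic fit.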

[2] = system: HeLa cells; test: Proliferation assay (HeLa cell line); type: cell-based; conditions: read-out: Biological Assay 2: Proliferation assay (HeLa cell line) median IC50
[3] = Homo sapiens, 96 h, 4 days, crystal violet

catalytic domain of human Bub1 (amino acids 704-1085), sequence (O43683 704-1085): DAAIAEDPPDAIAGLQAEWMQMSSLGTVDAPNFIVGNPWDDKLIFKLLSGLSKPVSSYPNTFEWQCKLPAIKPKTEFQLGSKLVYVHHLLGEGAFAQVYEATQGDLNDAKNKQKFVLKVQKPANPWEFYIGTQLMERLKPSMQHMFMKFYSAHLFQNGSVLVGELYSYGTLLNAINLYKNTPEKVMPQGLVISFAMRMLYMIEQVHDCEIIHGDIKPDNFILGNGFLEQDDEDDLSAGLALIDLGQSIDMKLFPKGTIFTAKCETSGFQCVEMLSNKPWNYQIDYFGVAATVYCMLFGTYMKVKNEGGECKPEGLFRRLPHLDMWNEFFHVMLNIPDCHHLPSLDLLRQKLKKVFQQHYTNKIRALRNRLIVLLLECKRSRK

IC50 [2, 3]	Compound	IC50 [1]	IC50 ([2]; 4 days, crystal violet)	IC50 ([2]; Homo sapiens, 96 h)
	CCOc1cc(F)c(Cn2nc(-c3ncc(OC)c(Nc4ccncc4CO)n3)c3ccccc32)c(F)c1 [Example 8-4, [4-({2-[1-(4-ethoxy-2,6-difluorobenzyl)-1H-indazol-3-yl]-5-methoxypyrimidin-4-yl}amino)pyrimidin-3-yl]methanol]	13 nM	5000 nM	
≥ 10000 nM	COc1cnc(-c2nn(Cc3cccc(CC(C)(C)O)c3)c3ccccc23)nc1Nc1ccncc1 [Example 9-2, 1-[3-({3-[5-methoxy-4-(pyridin-4-ylamino)pyrimidin-2-yl]-1H-indazol-1-yl}methyl)phenyl]-2-methylpropan-2-ol]	21 nM		
	COc1cnc(-c2nn(Cc3c(Cl)ccc(C(C)(C)O)c3Cl)c3ccccc23)nc1Nc1ccncc1 [Example 9-3, 2-[2,4-dichloro-3-({3-[5-methoxy-4-(pyridin-4-ylamino)pyrimidin-2-yl]-1H-indazol-1-yl}methyl)phenyl] propan-2-ol]	23 nM		7000 nM
2000 nM	CCOc1cc(F)c(Cn2nc(-c3ncc(OC(F)F)c(Nc4ccncc4)n3)c3ccccc32)c(F)c1 [Example 10-1, 5-(difluoromethoxy)-2-[1-(4-ethoxy-2,6-difluorobenzyl)-1H-indazol-3-yl]-N-(pyridin-4 yl)pyrimidin-4-amine]	12 nM		
9600 nM	CCOc1cc(F)c(Cn2nc(-c3ncc(O)c(N(c4ccncc4)C(F)F)n3)c3ccccc32)c(F)c1 [Example 10-3, 4-[(difluoromethyl) (pyridin-4-yl)amino]-2-[1-(4-ethoxy-2,6-difluorobenzyl)-1H-indazol-3-yl]pyrimidin-5-ol]	360 nM		
	COc1ccc(Cn2nc(-c3ncc(OCC(F)(F)F)c(Nc4ccncc4)n3)c3ccccc32)cc1 [Example 11-1, 2-[1-(4-methoxybenzyl)-1H-indazol-3-yl]-N-(pyridin-4-yl)-5-(2,2,2-trifluoroethoxy)pyrimidin-4-amine]	18 nM		8100 nM
≥ 10000 nM	CCOc1cc(F)c(Cn2nc(-c3ncc(OCC(F)(F)F)c(Nc4ccncc4)n3)c3ccccc32)c(F)c1 [Example 11-2, 2-[1-(4-ethoxy-2,6-difluorobenzyl)-1H-indazol-3-yl]-N-(pyridin-4-yl)-5-(2,2,2-trifluoroethoxy) pyrimidin-4-amine]	10 nM		
	OC[C@@H](O)COc1cnc(-c2nn(Cc3ccccc3F)c3ccccc23)nc1Nc1ccncc1 [Example 12-2, (2R)-3-({2-[1-(2-fluorobenzyl)-1H-indazol-3-yl]-4-(pyridin-4-ylamino)pyrimidin-5-yl}oxy)propane-1,2-diol]	4.6 nM		≥ 10000 nM
	OC[C@H](O)COc1cnc(-c2nn(Cc3ccccc3F)c3ccccc23)nc1Nc1ccncc1 [Example 12-3]	4.8 nM	≥ 10000 nM	
	OCCOc1cnc(-c2nn(Cc3ccccc3F)c3ccccc23)nc1Nc1ccncc1 [Example 13-2, 2-({2-[1-(2-fluorobenzyl)-1H-indazol-3-yl]-4-(pyridin-4-ylamino)pyrimidin-5-yl}oxy)ethanol]	7.2 nM		9600 nM
	CCOC(=O)c1cnccc1Nc1nc(-c2nn(Cc3ccccc3F)c3ccccc23)ncc1OCCO [Example 13-3, ethyl 4-({2-[1-(2-fluorobenzyl)-1H-indazol-3-yl]-5-(2-hydroxyethoxy)pyrimidin-4-yl}amino)pyridine-3-carboxylate]	17 nM		≥ 10000 nM
8000 nM	CNC(=O)c1cnccc1Nc1nc(-c2nn(Cc3ccccc3F)c3ccccc23)ncc1OCCO [Example 13-4, 4-({2-[1-(2-fluorobenzyl)-1H-indazol-3-yl]-5-(2-hydroxyethoxy)-pyrimidin-4-yl}amino)-N-methylpyridine-3-carboxamide]	4.7 nM		
≥ 10000 nM	NC(=O)c1cnccc1Nc1nc(-c2nn(Cc3ccccc3F)c3ccccc23)ncc1OCCO [Example 13-5, 4-({2-[1-(2-fluorobenzyl)-1H-indazol-3-yl]-5-(2-hydroxyethoxy)pyrimidin-4-yl}amino)pyridine-3-carboxamide]	6.5 nM		
